Experimental data taken from patent US20080051463A1, “ANTHRACENE COMPOUNDS AND THEIR USE FOR TREATING BENIGN AND MALIGNANT TUMOR DISORDERS” (AETERNA ZENTARIS GmbH, priority 2006, published 2008).
≈ marks a conversion by molar mass, not a printed value. Where “and” joins values, the source holds several entries; their conditions need not be identical. Equal values may be shown once.

Columns and labels:
bovine tubulin = test: Inhibition of the polymerization of bovine tubulin (in vitro); type: biochemical
Source text: In this test, tubulin purified by polymerization and depolymerization cycles is used, which is polymerized by addition of GTP and heating.
Table 1 states the %-inhibition values and Table 2 states the EC50 values of polymerization inhibition of tubulin with 30% associated proteins (MAPs).

porcine brain tubulin = system: T1, porcine brain tubulin; test: Inhibition of the polymerization of porcine brain tubulin (turbidimetric); type: biochemical; settings: porcine brain tubulin with about 15% MAPs, GTP, 37° C.
T1 construct: In addition to tubulin, the protein used comprises about 15% of associated proteins (MAPs)
Method: b) In an in vitro test, the compounds 1, 2, 4 and 7 were tested for inhibition of the polymerization of porcine brain tubulin. In this test, tubulin purified by polymerization and depolymerization cycles is used (Shelanski et al. Proc. Natl. Acad. Sci. U.S.A. 1973, 70, 765-768 modified according to Vater et al. Acta Histochem. Suppl. 1986, 33, 123-129), which is polymerized by addition of GTP and heating to 37° C. In addition to tubulin, the protein used comprises about 15% of associated proteins (MAPs). The measurement values were determined turbidimetrically according to Gaskin et al. J. Mol. Biol. 89 (1974) 737-755.
Table 3 states the EC50 value of the polymerization inhibition.

Eg51-406 = target: T2, Eg51-406 (Homo sapiens, UniProt P52732); test: Inhibition of kinesin Eg5 activity, recombinant Eg51-406; type: biochemical; settings: recombinant Eg51-406 (Table 5)
T2 construct: read as Eg5 residues 1-406
T2 sequence (P52732 1-1056): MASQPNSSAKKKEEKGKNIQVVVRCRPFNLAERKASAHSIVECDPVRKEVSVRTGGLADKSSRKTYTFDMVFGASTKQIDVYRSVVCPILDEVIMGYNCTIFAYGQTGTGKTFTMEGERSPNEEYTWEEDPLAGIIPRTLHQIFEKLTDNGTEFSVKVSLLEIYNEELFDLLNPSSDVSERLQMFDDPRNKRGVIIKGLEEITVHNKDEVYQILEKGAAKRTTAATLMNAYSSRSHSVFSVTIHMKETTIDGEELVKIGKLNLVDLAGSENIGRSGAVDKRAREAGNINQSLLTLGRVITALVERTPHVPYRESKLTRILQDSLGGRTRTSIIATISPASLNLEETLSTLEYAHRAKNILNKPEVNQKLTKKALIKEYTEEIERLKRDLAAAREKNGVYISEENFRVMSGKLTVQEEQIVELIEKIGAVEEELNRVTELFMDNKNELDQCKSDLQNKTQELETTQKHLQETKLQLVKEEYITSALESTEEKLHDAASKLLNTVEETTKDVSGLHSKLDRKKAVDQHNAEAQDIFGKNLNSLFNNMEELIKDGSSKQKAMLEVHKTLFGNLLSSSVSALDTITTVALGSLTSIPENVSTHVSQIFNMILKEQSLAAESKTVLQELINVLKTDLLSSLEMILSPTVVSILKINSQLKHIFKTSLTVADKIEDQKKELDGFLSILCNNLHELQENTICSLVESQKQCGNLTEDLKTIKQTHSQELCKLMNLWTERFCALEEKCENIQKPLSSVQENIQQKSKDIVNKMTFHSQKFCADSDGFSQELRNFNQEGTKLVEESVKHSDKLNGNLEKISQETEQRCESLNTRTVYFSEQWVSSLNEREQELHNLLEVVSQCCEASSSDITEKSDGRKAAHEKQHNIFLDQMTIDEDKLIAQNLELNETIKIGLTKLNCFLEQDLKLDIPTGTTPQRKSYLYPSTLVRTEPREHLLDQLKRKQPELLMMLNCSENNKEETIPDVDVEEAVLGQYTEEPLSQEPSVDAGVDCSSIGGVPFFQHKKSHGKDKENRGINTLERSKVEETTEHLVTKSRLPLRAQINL
Source text: In an in vitro test, compound 1 was examined for inhibition of Eg5 activity [Kodama, T. et al. J. Biochem. 99: 1465-1472 (1986)].
Here, the recombinant kinesins Eg513-437 (Table 3) and Eg51-406 (Table 4) were used.
Tables 4 and 5 state the EC50 values of Eg5 inhibition for the compound 1 according to the invention.

[1] = system: lung carcinoma cell line NCI-H460; test: Proliferation test (cellular dehydrogenase activity), NCI-H460; type: cell-based; settings: Homo sapiens
Source text: (§1) The antiproliferative activity of the compounds 1, 2, 4, 6, 7, 9, 10, 11, 12 and 13 according to the invention was investigated in a proliferation test performed on established tumor cell lines (D. A. Scuderio et al. Cancer Res. 1988, 48: 4827-4833).
(§2) The test used determines the cellular dehydrogenase activity and makes it possible to determine cell viability and determine cell number indirectly.
(§3) The cell lines used are the human cervical carcinoma cell line KB/HeLa (ATCC CCL17), the ovarian adenocarcinoma cell line SKOV-3 (ATCC HTB77), the human glioblastoma cell line SF-268 (NCI-503138) and the lung carcinoma cell line NCI-H460 (NCI-503473). In addition, an RKOp27 cell system was used for investigating the cell cycle-specific effect of the substance (M. Schmidt et al. Oncogene 2000, 19(20): 2423-9).

[2] = system: RKOp27 human colon carcinoma cells; test: Proliferation test, RKOp27 cell system without p27kiP1 expression; type: cell-based; settings: RKOp27 without expression of p27kiP1
Source text: as §1, §2, §3
(§4) RKO is a human colon carcinoma line in which expression of the cell cycle inhibitor p27^kiP1 can be induced using the ecdysone expression system and lead to cell cycle arrest specifically in […].
(§5) By contrast, cell cycle-specific substances, such as, for example, tubulin inhibitors, are only cytotoxic when cells are not arrested and the cell cycle is passed through.

[3] = system: RKOp27 human colon carcinoma cells, p27kiP1 induced; test: Proliferation test, RKOp27 cell system with induced p27kiP1 expression; type: cell-based; settings: RKOp27 with induced expression of p27kiP1, read-out: RKOP27ind EC50
Source text: as §1, §2, §3, §4, §5

O=C(C=C1c2ccccc2C(=O)c2ccccc21)c1ccc(O)c(O)c1 [Compound 1, 10-[2-(3,4-dihydroxy-phenyl)-2-oxo-ethylidene]-10H-anthracen-9-one]
Inhibition at 10 μg/ml [%] (bovine tubulin; 10 μg/ml, tubulin with 30% associated proteins (MAPs), repeat values): 98.2% and 83.0% and 86.9% and 79.7% | EC50 of polymerization inhibition of tubulin (bovine tubulin; bovine tubulin with 30% associated proteins (MAPs)): 7.15 µg/mL and 8.02 µg/mL | EC50 of the polymerization inhibition (porcine brain tubulin): 3.0 µg/mL | EC50 (Eg51-406): 37.1 µM | EC50 [1]: 0.146 µg/mL (≈ 0.426 µM) | EC50 [2]: 0.083 µg/mL (≈ 0.242 µM) | EC50 [3]: > 3.16 µg/mL
